Results as given in patent US12486300B2, “Mithramycin oxime derivatives having increased selectivity and anti-cancer activity” (University of Kentucky Research Foundation, priority 2018, dated 2025).

These molecules were tested on TC32 Ewing sarcoma cells, expressing EWS-FLI1 (assay: Growth inhibition assay, TC32 cells). Details: ratio of GI50 PC3 to TC32.
Type: cell-based
Protocol: Growth inhibition assay to assess cytotoxicity in ETS vs non-ETS expressing cells. Cells were seeded in clear 96-well plates (VWR, Radnor, PA). Seeding densities were optimized for each cell line to support 5 days of linear growth. Following a 24 hours attachment period, cells in duplicate wells were treated with half-log increments of respective compounds (0 nM and 0.3 nM-10 μM). Working stocks were prepared from an initial 10 mM drug stock diluted in either 100% ethanol or dimethyl sulfoxide (DMSO). All wells contained a final concentration of 0.1% (v/v) respective organic solvent. Immediately following treatment, cell viability was measured for vehicle control (Day 0) wells. Cell viability was measured in the remaining wells after 72 hours of incubation with compound or vehicle control (Day 3).
Percent viability, relative to the initial cell seeding concentration, was calculated by ((TreatmentDay3−Vehicle ControlDay0)/(Vehicle ControlDay3−Vehicle ControlDay0))×100. Percent cell viability was plotted as a function of compound concentration (Log [M]) and the data were fit using a 3-parameter non-linear model with fixed Hill slope constant and 4-parameter non-linear model with variable Hill slope constant. The model with the best curve fit was used to estimate the GI50 in GraphPad Prism 7.0 software (GraphPad Software, La Jolla, CA). The 3-parameter equation used was Y=Bottom+(Top−Bottom)/(1+10[…]((X−Log[IC50]))). The 4-parameter equation used was Y=Bottom+(Top−Bottom)/(1+10[…]((Log[IC50]−X)*Hillslope)). Top and Bottom are plateaus in the units of the Y-axis (response). IC50 is the response (Y-axis) halfway between Top and Bottom plateaus.
All compounds were tested at least once in multi-well replicates and each experiment included one a control compound (i.e., MTM) to ensure the stable response of the cell lines. The selectivity index was estimated by determining the ratio of GI50 estimates between ETS fusion negative and ETS fusion positive cell lines.

SMILES	PC:TC32 (cellular selectivity)
COC(=O)C(C)NC(=O)C(Cc1c[nH]c2ccccc12)NC(=O)CON=C(C(O)C(C)O)C(OC)C1Cc2cc3cc(OC4CC(OC5CC(O)C(O)C(C)O5)C(O)C(C)O4)c(C)c(O)c3c(O)c2C(=O)C1OC1CC(OC2CC(OC3CC(C)(O)C(O)C(C)O3)C(O)C(C)O2)C(O)C(C)O1 (centres unmarked) [MTM (52)]	6.6
COC(C(=NOCC(=O)NCc1ccc2[nH]ccc2c1)C(O)C(C)O)C1Cc2cc3cc(OC4CC(OC5CC(O)C(O)C(C)O5)C(O)C(C)O4)c(C)c(O)c3c(O)c2C(=O)C1OC1CC(OC2CC(OC3CC(C)(O)C(O)C(C)O3)C(O)C(C)O2)C(O)C(C)O1 (centres unmarked) [MTM (65)]	20.1
COC(C(=NOCC(=O)NCCc1ccccc1)C(O)C(C)O)C1Cc2cc3cc(OC4CC(OC5CC(O)C(O)C(C)O5)C(O)C(C)O4)c(C)c(O)c3c(O)c2C(=O)C1OC1CC(OC2CC(OC3CC(C)(O)C(O)C(C)O3)C(O)C(C)O2)C(O)C(C)O1 (centres unmarked) [MTM (29)]	1.58
COC(C(=NOC[Si](C)(C)C)C(O)C(C)O)C1Cc2cc3cc(OC4CC(OC5CC(O)C(O)C(C)O5)C(O)C(C)O4)c(C)c(O)c3c(O)c2C(=O)C1OC1CC(OC2CC(OC3CC(C)(O)C(O)C(C)O3)C(O)C(C)O2)C(O)C(C)O1 (centres unmarked) [MTM (5E)]	1.28
COC(C(=NOCCc1c[nH]c2ccccc12)C(O)C(C)O)C1Cc2cc3cc(OC4CC(OC5CC(O)C(O)C(C)O5)C(O)C(C)O4)c(C)c(O)c3c(O)c2C(=O)C1OC1CC(OC2CC(OC3CC(C)(O)C(O)C(C)O3)C(O)C(C)O2)C(O)C(C)O1 (centres unmarked) [MTM (19)]	1.70
CNC(=O)C(Cc1c[nH]c2ccccc12)NC(=O)C(Cc1c[nH]c2ccccc12)NC(=O)CON=C(C(O)C(C)O)C(OC)C1Cc2cc3cc(OC4CC(OC5CC(O)C(O)C(C)O5)C(O)C(C)O4)c(C)c(O)c3c(O)c2C(=O)C1OC1CC(OC2CC(OC3CC(C)(O)C(O)C(C)O3)C(O)C(C)O2)C(O)C(C)O1 (centres unmarked) [MTM (53)]	5.0
COC(=O)C(Cc1c[nH]c2ccccc12)NC(=O)C(Cc1ccccc1)NC(=O)CON=C(C(O)C(C)O)C(OC)C1Cc2cc3cc(OC4CC(OC5CC(O)C(O)C(C)O5)C(O)C(C)O4)c(C)c(O)c3c(O)c2C(=O)C1OC1CC(OC2CC(OC3CC(C)(O)C(O)C(C)O3)C(O)C(C)O2)C(O)C(C)O1 (centres unmarked) [MTM (23)]	7.31
COC(=O)C(Cc1c[nH]c2ccccc12)NC(=O)C(C)NC(=O)CON=C(C(O)C(C)O)C(OC)C1Cc2cc3cc(OC4CC(OC5CC(O)C(O)C(C)O5)C(O)C(C)O4)c(C)c(O)c3c(O)c2C(=O)C1OC1CC(OC2CC(OC3CC(C)(O)C(O)C(C)O3)C(O)C(C)O2)C(O)C(C)O1 (centres unmarked) [MTM (34)]	4.28
COC(C(=NOCC(C)C)C(O)C(C)O)C1Cc2cc3cc(OC4CC(OC5CC(O)C(O)C(C)O5)C(O)C(C)O4)c(C)c(O)c3c(O)c2C(=O)C1OC1CC(OC2CC(OC3CC(C)(O)C(O)C(C)O3)C(O)C(C)O2)C(O)C(C)O1 (centres unmarked) [MTM (7E)]	1.04
COC(C(=NOCCOc1ccc(C(F)(F)F)cc1)C(O)C(C)O)C1Cc2cc3cc(OC4CC(OC5CC(O)C(O)C(C)O5)C(O)C(C)O4)c(C)c(O)c3c(O)c2C(=O)C1OC1CC(OC2CC(OC3CC(C)(O)C(O)C(C)O3)C(O)C(C)O2)C(O)C(C)O1 (centres unmarked) [MTM (16)]	7.91
COC(C(=NOCC(=O)Nc1cccc2[nH]ccc12)C(O)C(C)O)C1Cc2cc3cc(OC4CC(OC5CC(O)C(O)C(C)O5)C(O)C(C)O4)c(C)c(O)c3c(O)c2C(=O)C1OC1CC(OC2CC(OC3CC(C)(O)C(O)C(C)O3)C(O)C(C)O2)C(O)C(C)O1 (centres unmarked) [MTM (68)]	4.5
COC(C(=NOCC(=O)Nc1ccc2c(c1)CC(=O)N2)C(O)C(C)O)C1Cc2cc3cc(OC4CC(OC5CC(O)C(O)C(C)O5)C(O)C(C)O4)c(C)c(O)c3c(O)c2C(=O)C1OC1CC(OC2CC(OC3CC(C)(O)C(O)C(C)O3)C(O)C(C)O2)C(O)C(C)O1 (centres unmarked) [MTM (67)]	3.8
COC(C(=NOCCCCc1c[nH]c2ccccc12)C(O)C(C)O)C1Cc2cc3cc(OC4CC(OC5CC(O)C(O)C(C)O5)C(O)C(C)O4)c(C)c(O)c3c(O)c2C(=O)C1OC1CC(OC2CC(OC3CC(C)(O)C(O)C(C)O3)C(O)C(C)O2)C(O)C(C)O1 (centres unmarked) [MTM (22)]	1.54
C#CCON=C(C(O)C(C)O)C(OC)C1Cc2cc3cc(OC4CC(OC5CC(O)C(O)C(C)O5)C(O)C(C)O4)c(C)c(O)c3c(O)c2C(=O)C1OC1CC(OC2CC(OC3CC(C)(O)C(O)C(C)O3)C(O)C(C)O2)C(O)C(C)O1 (centres unmarked) [MTM (17E)]	2.40
COC(=O)C(Cc1cn(C)c2ccccc12)NC(=O)CON=C(C(O)C(C)O)C(OC)C1Cc2cc3cc(OC4CC(OC5CC(O)C(O)C(C)O5)C(O)C(C)O4)c(C)c(O)c3c(O)c2C(=O)C1OC1CC(OC2CC(OC3CC(C)(O)C(O)C(C)O3)C(O)C(C)O2)C(O)C(C)O1 (centres unmarked) [MTM (26)]	5.64
COC(C(=NOCC(=O)Nc1ccc2cc[nH]c2c1)C(O)C(C)O)C1Cc2cc3cc(OC4CC(OC5CC(O)C(O)C(C)O5)C(O)C(C)O4)c(C)c(O)c3c(O)c2C(=O)C1OC1CC(OC2CC(OC3CC(C)(O)C(O)C(C)O3)C(O)C(C)O2)C(O)C(C)O1 (centres unmarked) [MTM (66)]	4.2
CON=C(C(O)C(C)O)C(OC)C1Cc2cc3cc(OC4CC(OC5CC(O)C(O)C(C)O5)C(O)C(C)O4)c(C)c(O)c3c(O)c2C(=O)C1OC1CC(OC2CC(OC3CC(C)(O)C(O)C(C)O3)C(O)C(C)O2)C(O)C(C)O1 (centres unmarked) [MTM (1)]	1.66
COC(C(=NOCC(=O)NC(Cc1c[nH]c2ccccc12)C(=O)NCCc1c[nH]c2ccccc12)C(O)C(C)O)C1Cc2cc3cc(OC4CC(OC5CC(O)C(O)C(C)O5)C(O)C(C)O4)c(C)c(O)c3c(O)c2C(=O)C1OC1CC(OC2CC(OC3CC(C)(O)C(O)C(C)O3)C(O)C(C)O2)C(O)C(C)O1 (centres unmarked) [MTM (43)]	2.6
COC(C(=NOC[Si](C)(C)C)C(O)C(C)O)C1Cc2cc3cc(OC4CC(OC5CC(O)C(O)C(C)O5)C(O)C(C)O4)c(C)c(O)c3c(O)c2C(=O)C1OC1CC(OC2CC(OC3CC(C)(O)C(O)C(C)O3)C(O)C(C)O2)C(O)C(C)O1 (centres unmarked) [MTM (5Z)]	0.68
COC(C(=NOC(C)(C)C)C(O)C(C)O)C1Cc2cc3cc(OC4CC(OC5CC(O)C(O)C(C)O5)C(O)C(C)O4)c(C)c(O)c3c(O)c2C(=O)C1OC1CC(OC2CC(OC3CC(C)(O)C(O)C(C)O3)C(O)C(C)O2)C(O)C(C)O1 (centres unmarked) [MTM (15E)]	1.87
COC(=O)c1ccc(NC(=O)CON=C(C(O)C(C)O)C(OC)C2Cc3cc4cc(OC5CC(OC6CC(O)C(O)C(C)O6)C(O)C(C)O5)c(C)c(O)c4c(O)c3C(=O)C2OC2CC(OC3CC(OC4CC(C)(O)C(O)C(C)O4)C(O)C(C)O3)C(O)C(C)O2)c(OCC(C)C)c1 (centres unmarked) [MTM (61)]	5.7
COC(=O)C(Cc1ccccc1)NC(=O)C(Cc1ccccc1)NC(=O)CON=C(C(O)C(C)O)C(OC)C1Cc2cc3cc(OC4CC(OC5CC(O)C(O)C(C)O5)C(O)C(C)O4)c(C)c(O)c3c(O)c2C(=O)C1OC1CC(OC2CC(OC3CC(C)(O)C(O)C(C)O3)C(O)C(C)O2)C(O)C(C)O1 (centres unmarked) [MTM (28)]	11.68
COC(C(=NOCc1ccc([N+](=O)[O-])cc1)C(O)C(C)O)C1Cc2cc3cc(OC4CC(OC5CC(O)C(O)C(C)O5)C(O)C(C)O4)c(C)c(O)c3c(O)c2C(=O)C1OC1CC(OC2CC(OC3CC(C)(O)C(O)C(C)O3)C(O)C(C)O2)C(O)C(C)O1 (centres unmarked) [MTM (11)]	1.30
COC(C(=NOCCCc1c[nH]c2ccccc12)C(O)C(C)O)C1Cc2cc3cc(OC4CC(OC5CC(O)C(O)C(C)O5)C(O)C(C)O4)c(C)c(O)c3c(O)c2C(=O)C1OC1CC(OC2CC(OC3CC(C)(O)C(O)C(C)O3)C(O)C(C)O2)C(O)C(C)O1 (centres unmarked) [MTM (21)]	1.38
COC(C(=NOCC(=O)NC(Cc1c[nH]c2ccccc12)C(=O)O)C(O)C(C)O)C1Cc2cc3cc(OC4CC(OC5CC(O)C(O)C(C)O5)C(O)C(C)O4)c(C)c(O)c3c(O)c2C(=O)C1OC1CC(OC2CC(OC3CC(C)(O)C(O)C(C)O3)C(O)C(C)O2)C(O)C(C)O1 (centres unmarked) [MTM (39)]	7.4
COC(=O)C(Cc1ccccc1)NC(=O)CON=C(C(O)C(C)O)C(OC)C1Cc2cc3cc(OC4CC(OC5CC(O)C(O)C(C)O5)C(O)C(C)O4)c(C)c(O)c3c(O)c2C(=O)C1OC1CC(OC2CC(OC3CC(C)(O)C(O)C(C)O3)C(O)C(C)O2)C(O)C(C)O1 (centres unmarked) [MTM (27)]	7.06
COC(C(=NOCCc1c[nH]c2ccccc12)C(O)C(C)O)C1Cc2cc3cc(OC4CC(OC5CC(O)C(O)C(C)O5)C(O)C(C)O4)c(C)c(O)c3c(O)c2C(=O)C1OC1CC(OC2CC(OC3CC(C)(O)C(O)C(C)O3)C(O)C(C)O2)C(O)C(C)O1 (centres unmarked) [MTM (19E)]	1.40
COC(C(=NOCCNC(=O)c1ccc([N+](=O)[O-])c(OCC(C)C)c1)C(O)C(C)O)C1Cc2cc3cc(OC4CC(OC5CC(O)C(O)C(C)O5)C(O)C(C)O4)c(C)c(O)c3c(O)c2C(=O)C1OC1CC(OC2CC(OC3CC(C)(O)C(O)C(C)O3)C(O)C(C)O2)C(O)C(C)O1 (centres unmarked) [MTM (63)]	13.3
COC(C(=NOCC(C)C)C(O)C(C)O)C1Cc2cc3cc(OC4CC(OC5CC(O)C(O)C(C)O5)C(O)C(C)O4)c(C)c(O)c3c(O)c2C(=O)C1OC1CC(OC2CC(OC3CC(C)(O)C(O)C(C)O3)C(O)C(C)O2)C(O)C(C)O1 (centres unmarked) [MTM (7Z)]	1.15
